Laboratory results: ChEMBL document CHEMBL6071168, “Discovery of novel fructose-1,6-bisphosphatase inhibitors bearing benzimidazole scaffold using a dual-ligand molecular docking model” (Eur J Med Chem, 2024)
Blank lines part the entries; values can stand above or below the compound they belong to. Activity calls are given as the source filed them. The rule behind the calls is not given here.

Tests used:
[1] = species on record: Homo sapiens; assay: Inhibition of Fructose-1,6-bisphosphatase (unknown origin) preincubated for 10 min followed by addition of NADP+, PGI,G6PDH at 10 uM measured after 40 min by absorption based analysis relative to control; details: time 50.0 min
[2] = Inhibition of Fructose-1,6-bisphosphatase (unknown origin) preincubated for 10 min followed by addition of NADP+, PGI,G6PDH and measured after 40 min by absorption based analysis; design: species or system Homo sapiens
[3] = molecular target: T1, Cytochrome P450 1A2 (Homo sapiens, UniProt P05177); assay: Inhibition of CYP1A2 (unknown origin) incubated for 30 min in presence of NADPH by LC-MS/MS analysis; format: ADME
T1 sequence (P05177 whole entry): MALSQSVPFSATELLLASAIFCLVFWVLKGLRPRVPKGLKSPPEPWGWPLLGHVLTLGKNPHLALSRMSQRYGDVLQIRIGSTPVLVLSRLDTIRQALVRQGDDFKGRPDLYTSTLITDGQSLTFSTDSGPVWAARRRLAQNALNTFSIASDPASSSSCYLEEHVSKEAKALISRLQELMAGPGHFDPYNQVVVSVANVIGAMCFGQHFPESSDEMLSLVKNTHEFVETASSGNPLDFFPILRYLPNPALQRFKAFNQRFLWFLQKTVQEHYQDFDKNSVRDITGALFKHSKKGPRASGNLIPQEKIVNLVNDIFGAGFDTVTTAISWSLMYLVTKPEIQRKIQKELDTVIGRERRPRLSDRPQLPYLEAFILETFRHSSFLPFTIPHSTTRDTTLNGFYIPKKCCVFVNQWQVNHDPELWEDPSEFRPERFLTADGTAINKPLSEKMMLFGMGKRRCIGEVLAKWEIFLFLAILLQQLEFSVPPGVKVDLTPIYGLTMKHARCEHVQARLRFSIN

[4] = test system: Mus musculus; assay: Anti-diabetic activity against 16 hrs fasted ICR mouse assessed as reduced blood glucose level at 150 mg/kg, po measured after 90 min by oral pyruvate tolerance test; format: functional, organism-based
[5] = Inhibition of Fructose-1,6-bisphosphatase (unknown origin); design: species or system Homo sapiens
[6] = molecular target: Cytochrome P450 2C19 (Homo sapiens, UniProt P33261); assay: Inhibition of CYP2C19 (unknown origin) incubated for 30 min in presence of NADPH by LC-MS/MS analysis; format: ADME
[7] = Half life in ICR mouse at 100 mg/kg, po by HPLC-MS/MS analysis; format: ADME, organism-based; details: in vivo
[8] = AUC (0 to t) in ICR mouse at 100 mg/kg, po by HPLC-MS/MS analysis; format: ADME, organism-based; details: in vivo
[9] = Cmax in ICR mouse at 100 mg/kg, po by HPLC-MS/MS analysis; format: ADME, organism-based; details: in vivo
[10] = AUC (0 to t) in ICR mouse at 5 mg/kg, iv by HPLC-MS/MS analysis; format: ADME, organism-based; details: in vivo
[11] = MRT (0 to infinity) in ICR mouse at 5 mg/kg, iv by HPLC-MS/MS analysis; format: ADME, organism-based; details: in vivo
[12] = Cmax in ICR mouse at 5 mg/kg, iv by HPLC-MS/MS analysis; format: ADME, organism-based; details: in vivo
[13] = molecular target: Cytochrome P450 3A4 (Homo sapiens, UniProt P08684); assay: Inhibition of CYP3A4 (unknown origin) incubated for 30 min in presence of NADPH by LC-MS/MS analysis; format: ADME
[14] = Oral Bioavailability in ICR mouse at 100 mg/kg by HPLC-MS/MS analysis; format: ADME, organism-based; details: in vivo
[15] = MRT (0 to infinity) in ICR mouse at 100 mg/kg, po by HPLC-MS/MS analysis; format: ADME, organism-based; details: in vivo
[16] = Half life in ICR mouse at 5 mg/kg, iv by HPLC-MS/MS analysis; format: ADME, organism-based; details: in vivo
[17] = Apparent volume of distribution in ICR mouse at 100 mg/kg, po by HPLC-MS/MS analysis; format: ADME, organism-based; details: in vivo
[18] = test system: Mus musculus; assay: Anti-diabetic activity against 16 hrs fasted ICR mouse assessed as reduced blood glucose level at 150 mg/kg, po measured after 30 to 90 min by oral pyruvate tolerance test; format: functional, organism-based; details: time 30-90 min
[19] = Clearance in ICR mouse at 100 mg/kg, po by HPLC-MS/MS analysis; format: ADME, organism-based; details: in vivo
[20] = AUC (0 to infinity) in ICR mouse at 100 mg/kg, po by HPLC-MS/MS analysis; format: ADME, organism-based; details: in vivo
[21] = MRT (0 to t) in ICR mouse at 100 mg/kg, po by HPLC-MS/MS analysis; format: ADME, organism-based; details: in vivo
[22] = molecular target: Cytochrome P450 2C9 (Homo sapiens, UniProt P11712); assay: Inhibition of CYP2C9 (unknown origin) incubated for 30 min in presence of NADPH by LC-MS/MS analysis; format: ADME
[23] = Tmax in ICR mouse at 5 mg/kg, iv by HPLC-MS/MS analysis; format: ADME, organism-based; details: in vivo
[24] = Apparent volume of distribution in ICR mouse at 5 mg/kg, iv by HPLC-MS/MS analysis; format: ADME, organism-based; details: in vivo, read-out: Vz
[25] = AUC (0 to infinity) in ICR mouse at 5 mg/kg, iv by HPLC-MS/MS analysis; format: ADME, organism-based; details: in vivo
[26] = Tmax in ICR mouse at 100 mg/kg, po by HPLC-MS/MS analysis; format: ADME, organism-based; details: in vivo
[27] = molecular target: Cytochrome P450 3A5 (Homo sapiens, UniProt P20815); assay: Inhibition of CYP3A5 (unknown origin) incubated for 30 min in presence of NADPH by LC-MS/MS analysis; format: ADME
[28] = molecular target: Cytochrome P450 2D6 (Homo sapiens, UniProt P10635); assay: Inhibition of CYP2D6 (unknown origin) incubated for 30 min in presence of NADPH by LC-MS/MS analysis; format: ADME
[29] = MRT (0 to t) in ICR mouse at 5 mg/kg, iv by HPLC-MS/MS analysis; format: ADME, organism-based; details: in vivo
[30] = Clearance in ICR mouse at 5 mg/kg, iv by HPLC-MS/MS analysis; format: ADME, organism-based; details: in vivo

Chain of Cytochrome P450 2D6 (P10635 whole entry): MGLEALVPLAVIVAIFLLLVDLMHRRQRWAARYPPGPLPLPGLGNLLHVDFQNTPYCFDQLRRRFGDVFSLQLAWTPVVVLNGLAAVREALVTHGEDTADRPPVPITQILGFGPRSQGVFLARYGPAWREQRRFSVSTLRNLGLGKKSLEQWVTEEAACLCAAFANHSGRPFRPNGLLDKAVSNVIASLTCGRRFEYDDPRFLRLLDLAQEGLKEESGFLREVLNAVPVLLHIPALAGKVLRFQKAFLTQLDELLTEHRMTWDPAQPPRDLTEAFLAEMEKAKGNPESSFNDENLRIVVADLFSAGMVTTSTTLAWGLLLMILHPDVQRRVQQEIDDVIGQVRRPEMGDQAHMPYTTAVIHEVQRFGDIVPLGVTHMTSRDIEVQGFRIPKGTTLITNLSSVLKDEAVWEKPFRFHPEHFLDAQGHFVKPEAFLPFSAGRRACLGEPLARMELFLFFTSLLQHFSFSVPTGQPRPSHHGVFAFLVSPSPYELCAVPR
Chain of Cytochrome P450 3A4 (P08684 whole entry): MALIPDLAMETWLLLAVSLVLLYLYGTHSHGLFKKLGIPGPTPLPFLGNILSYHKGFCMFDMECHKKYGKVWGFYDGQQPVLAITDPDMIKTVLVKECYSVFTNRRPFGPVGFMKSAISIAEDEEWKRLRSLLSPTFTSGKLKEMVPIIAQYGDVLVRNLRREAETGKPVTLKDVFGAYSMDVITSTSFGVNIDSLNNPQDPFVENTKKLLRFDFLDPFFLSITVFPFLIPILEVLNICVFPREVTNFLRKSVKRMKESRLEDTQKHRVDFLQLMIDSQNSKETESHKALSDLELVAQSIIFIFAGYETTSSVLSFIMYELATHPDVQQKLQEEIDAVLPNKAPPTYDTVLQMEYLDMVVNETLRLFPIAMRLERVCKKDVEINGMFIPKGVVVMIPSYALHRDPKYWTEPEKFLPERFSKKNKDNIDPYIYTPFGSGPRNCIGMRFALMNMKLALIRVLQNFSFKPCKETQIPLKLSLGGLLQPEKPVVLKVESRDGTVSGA
Chain of Cytochrome P450 2C9 (P11712 whole entry): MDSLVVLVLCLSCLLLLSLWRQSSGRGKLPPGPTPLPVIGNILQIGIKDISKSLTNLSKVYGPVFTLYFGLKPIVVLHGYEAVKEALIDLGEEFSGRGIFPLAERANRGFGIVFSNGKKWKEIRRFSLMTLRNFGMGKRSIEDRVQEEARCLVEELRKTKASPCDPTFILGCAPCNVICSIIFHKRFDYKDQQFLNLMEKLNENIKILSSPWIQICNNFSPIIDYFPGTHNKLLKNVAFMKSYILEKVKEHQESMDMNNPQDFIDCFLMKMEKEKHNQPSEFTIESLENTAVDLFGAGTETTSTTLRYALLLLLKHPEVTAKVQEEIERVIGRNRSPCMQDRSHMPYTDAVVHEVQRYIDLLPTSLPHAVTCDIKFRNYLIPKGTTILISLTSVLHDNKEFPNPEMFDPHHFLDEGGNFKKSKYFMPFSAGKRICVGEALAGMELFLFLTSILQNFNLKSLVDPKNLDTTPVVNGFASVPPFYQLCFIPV
Chain of Cytochrome P450 3A5 (P20815 whole entry): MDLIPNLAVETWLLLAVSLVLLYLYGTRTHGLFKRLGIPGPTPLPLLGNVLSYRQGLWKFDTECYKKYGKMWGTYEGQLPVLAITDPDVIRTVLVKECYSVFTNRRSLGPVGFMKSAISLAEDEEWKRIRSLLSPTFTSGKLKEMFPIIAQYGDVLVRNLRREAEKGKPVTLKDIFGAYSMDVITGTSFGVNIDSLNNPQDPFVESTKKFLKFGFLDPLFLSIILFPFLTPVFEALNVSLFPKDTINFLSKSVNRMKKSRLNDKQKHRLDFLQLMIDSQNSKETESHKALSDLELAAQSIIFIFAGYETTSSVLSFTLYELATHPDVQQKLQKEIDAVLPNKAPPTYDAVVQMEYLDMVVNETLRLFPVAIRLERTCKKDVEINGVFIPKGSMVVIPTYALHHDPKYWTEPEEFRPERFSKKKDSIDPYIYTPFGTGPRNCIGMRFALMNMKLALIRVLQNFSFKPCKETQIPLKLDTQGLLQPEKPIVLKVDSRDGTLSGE
Chain of Cytochrome P450 2C19 (P33261 whole entry): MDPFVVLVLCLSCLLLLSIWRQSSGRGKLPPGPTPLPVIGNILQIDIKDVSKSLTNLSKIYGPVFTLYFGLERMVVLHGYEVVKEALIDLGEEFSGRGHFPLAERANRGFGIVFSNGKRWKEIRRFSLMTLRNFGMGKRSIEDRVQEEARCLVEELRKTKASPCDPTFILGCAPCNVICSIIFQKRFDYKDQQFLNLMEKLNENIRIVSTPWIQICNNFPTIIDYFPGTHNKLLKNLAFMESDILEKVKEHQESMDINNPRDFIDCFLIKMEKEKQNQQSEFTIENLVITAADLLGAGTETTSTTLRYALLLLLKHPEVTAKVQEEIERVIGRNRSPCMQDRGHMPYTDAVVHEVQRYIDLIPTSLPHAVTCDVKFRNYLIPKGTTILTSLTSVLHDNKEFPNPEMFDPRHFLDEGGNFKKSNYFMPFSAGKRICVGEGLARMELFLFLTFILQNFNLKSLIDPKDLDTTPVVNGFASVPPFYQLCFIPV

SMILES: COc1ccc(S(=O)(=O)Nc2ccccc2-c2nc3ccccc3n2C2CCCCC2)cc1
- inhibition [1]: 17.3%

SMILES: O=C(NS(=O)(=O)c1ccc(F)cc1)c1ccccc1N1CCN(Cc2nc3ccccc3n2C2CCCCC2)CC1
- inhibition [1]: 64.3%

SMILES: COc1ccc(S(=O)(=O)Nc2ccccc2-c2nc3ccccc3n2-c2ccc(NC(C)=O)cc2)cc1
- inhibition [1]: 36.8%

SMILES: Nc1ncnc2c1ncn2[C@@H]1O[C@H](COP(=O)(O)O)[C@@H](O)[C@H]1O [ADENOSINE PHOSPHATE]
- IC50 [2]: 3.29 µM
- inhibition [1]: 81.3%

SMILES: COc1ccc(S(=O)(=O)Nc2cccc(-c3nc4ccccc4n3Cc3ccc(Cl)cc3)c2)cc1
- inhibition [1]: 7.1%

SMILES: O=c1cc(-c2ccccc2)oc2ccc3ccccc3c12 [BETA-NAPHTHOFLAVONE]
- IC50 [3]: 0.148 µM

SMILES: COc1ccc(S(=O)(=O)Nc2cccc(-c3nc4ccccc4n3C3CCCCC3)c2)cc1
- inhibition [1]: 47.4%

SMILES: COc1ccc(S(=O)(=O)Nc2ccccc2-c2nc3ccccc3n2-c2ccc(Cl)cc2)cc1
- inhibition [1]: 28.9%

SMILES: COc1ccc(S(=O)(=O)Nc2cccc(-c3nc4ccccc4n3C)c2)cc1
- inhibition [1]: 5.7%

SMILES: COc1ccc(S(=O)(=O)Nc2cccc(-c3nc4ccccc4n3-c3ccc(NC(C)=O)cc3)c2)cc1
- inhibition [1]: 36.8%

SMILES: S=C(SSC(=S)n1cccc1)n1cccc1
- IC50 [5]: 0.13 µM

SMILES: CC(=O)Nc1ccc(-n2c(-c3ccccc3NS(=O)(=O)c3ccc(Cl)cc3)nc3ccccc32)cc1
- inhibition [1]: 25%

SMILES: O=S(=O)(Nc1ccccc1-c1nc2ccccc2n1C1CCCCC1)c1ccc(Cl)cc1
- inhibition [1]: 39.8%

SMILES: COc1ccc(S(=O)(=O)Nc2ccccc2-c2nc3ccccc3n2Cc2ccc(Cl)cc2)cc1
- inhibition [1]: 5.6%

SMILES: CC(C)=CCc1c(O)cc(O)c2c(=O)c(O)c(-c3ccc(O)c(O)c3)oc12
- IC50 [5]: 3.62 µM

SMILES: COc1ccc(S(=O)(=O)Nc2cccc(-c3nc4ccccc4n3-c3ccc(Cl)cc3)c2)cc1
- IC50 [2]: 5.35 µM
- inhibition [1]: 52.6%

SMILES: COc1ccc(S(=O)(=O)Nc2cccc(-c3nc4ccccc4n3C(C)C)c2)cc1
- inhibition [1]: 7.1%

SMILES: COc1ccccc1CNC(=O)N1C(=O)c2ccccc2S1(=O)=O
- IC50 [5]: 1.7 µM

Second part, led by results:

- inhibition [1]: 0%
SMILES: Cn1c(-c2cccc(NS(=O)(=O)c3ccc(Cl)cc3)c2)nc2ccccc21

- inhibition [1]: 0%
SMILES: COc1ccc(S(=O)(=O)NC(=O)c2cccc(-c3nc4ccccc4n3C(C)C)c2)cc1

- inhibition [1]: 0%
SMILES: COc1ccc(S(=O)(=O)Nc2cccc(-c3nc4ccccc4[nH]3)c2)cc1

- IC50 [2]: 8.04 µM
- inhibition [1]: 63.5%
SMILES: O=S(=O)(Nc1cccc(-c2nc3ccccc3n2-c2ccc(Cl)cc2)c1)c1ccc(Cl)cc1

- inhibition [1]: 0%
SMILES: O=C(NS(=O)(=O)c1ccc(Cl)cc1)c1cccc(-c2nc3ccccc3[nH]2)c1

- inhibition [1]: 0%
SMILES: CC(C)n1c(-c2cccc(C(=O)NS(=O)(=O)c3ccc(Cl)cc3)c2)nc2ccccc21

- IC50 [2]: 1.4 µM
- inhibition [1]: 88.3%
SMILES: O=C(NS(=O)(=O)c1ccc(Cl)cc1)c1cc(Cl)cc(-c2nc3ccccc3[nH]2)c1
- Activity [4]: Active

- inhibition [1]: 7.1%
SMILES: CC(C)n1c(-c2cccc(NS(=O)(=O)c3ccc(Cl)cc3)c2)nc2ccccc21

- inhibition [1]: 0%
SMILES: O=S(=O)(Nc1cccc(-c2nc3ccccc3[nH]2)c1)c1ccc(Cl)cc1

- inhibition [1]: 20.8%
SMILES: COc1ccc(S(=O)(=O)NC(=O)c2cccc(-c3nc4ccccc4[nH]3)c2)cc1

- inhibition [1]: 4%
SMILES: Cn1c(-c2cccc(C(=O)NS(=O)(=O)c3ccc(Cl)cc3)c2)nc2ccccc21

- IC50 [6]: > 50 µM
- half-life [7]: 1.29 h
- AUC(0-t) [8]: 19500 ng·h/mL
- IC50 [2]: 2.08 µM
- Cmax [9]: 7160 ng/mL
- AUC(0-t) [10]: 15900 ng·h/mL
- MRT inf [11]: 1.86 h
- Cmax [12]: 33500 ng/mL
- IC50 [13]: 20 µM
- bioavailability [14]: 6.15%
- MRT inf [15]: 3 h
- half-life [16]: 1.79 h
- Vz [17]: 9.799 L/kg
- IC50 [3]: 47.2 µM
- CL/F [19]: 87 mL/min/kg
- AUC(0-inf) [20]: 19500 ng·h/mL
- MRT last [21]: 3 h
- IC50 [22]: 1.31 µM
- Tmax [23]: 1.98 min
- inhibition [1]: 81.8%
- Vd [24]: 0.813 L/kg
- AUC(0-inf) [25]: 15900 ng·h/mL
- Tmax [26]: 0.25 h
- IC50 [27]: 20 µM
- IC50 [28]: 36.8 µM
- MRT last [29]: 1.86 h
- clearance [30]: 5.27 mL/min/kg
SMILES: COc1ccc(S(=O)(=O)NC(=O)c2cc(Cl)cc(-c3nc4ccccc4[nH]3)c2)cc1
- Activity [18]: Active

- inhibition [1]: 5.4%
SMILES: O=S(=O)(Nc1cc(Cl)cc(-c2nc3ccccc3[nH]2)c1)c1ccc(Cl)cc1

- inhibition [1]: 21.1%
SMILES: CC(=O)Nc1ccc(-n2c(-c3cccc(NS(=O)(=O)c4ccc(Cl)cc4)c3)nc3ccccc32)cc1

- inhibition [1]: 5.7%
SMILES: COc1ccc(S(=O)(=O)NC(=O)c2cccc(-c3nc4ccccc4n3C)c2)cc1

- inhibition [1]: 24.8%
SMILES: O=S(=O)(Nc1cccc(-c2nc3ccccc3n2C2CCCCC2)c1)c1ccc(Cl)cc1

- inhibition [1]: 16.2%
SMILES: O=S(=O)(Nc1cccc(-c2nc3ccccc3n2Cc2ccc(Cl)cc2)c1)c1ccc(Cl)cc1

- inhibition [1]: 18.2%
SMILES: COc1ccc(S(=O)(=O)Nc2cc(Cl)cc(-c3nc4ccccc4[nH]3)c2)cc1

- IC50 [2]: 2.16 µM
- inhibition [1]: 96.3%
SMILES: O=C(NS(=O)(=O)c1ccc(F)cc1)c1cc(Cl)cc(-c2nc3ccccc3[nH]2)c1
- Activity [4]: Active

- inhibition [1]: 28.9%
SMILES: O=S(=O)(Nc1ccccc1-c1nc2ccccc2n1-c1ccc(Cl)cc1)c1ccc(Cl)cc1

- inhibition [1]: 10.2%
SMILES: O=S(=O)(Nc1ccccc1-c1nc2ccccc2n1Cc1ccc(Cl)cc1)c1ccc(Cl)cc1
